IC50 data for 11 molecules are collected here from patent US20170022171A1, “2,5-DISUBSTITUTED CYCLOPENTANECARBOXYLIC ACIDS AND THEIR USE” (Bayer Pharma Aktiengesellschaft, priority 2014, published 2017).

Molecules are shown by their SMILES.

Type in all cases: biochemical
Assay [1] addresses T1, MMP-1 (Homo sapiens, UniProt P03956).
T1 construct: purchased R&D Systems 901-MP
T1 sequence (P03956 100-469): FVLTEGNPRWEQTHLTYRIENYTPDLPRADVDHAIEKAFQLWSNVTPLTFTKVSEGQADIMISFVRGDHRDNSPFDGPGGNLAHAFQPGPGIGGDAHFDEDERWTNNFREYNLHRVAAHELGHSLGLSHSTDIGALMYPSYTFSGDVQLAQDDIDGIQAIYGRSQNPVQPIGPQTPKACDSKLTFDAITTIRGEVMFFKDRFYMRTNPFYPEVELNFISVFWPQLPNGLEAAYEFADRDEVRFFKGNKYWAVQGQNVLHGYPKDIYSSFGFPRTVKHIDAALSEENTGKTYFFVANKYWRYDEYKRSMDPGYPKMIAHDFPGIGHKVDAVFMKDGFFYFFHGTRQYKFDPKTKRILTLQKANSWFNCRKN
In words: In vitro MMP-1 inhibition test. The source says: (§1) The MMP-mediated amidolytic cleavage of a suitable peptide substrate leads to an increase in fluorescent light here too. The signal intensity of the fluorescent light is directly proportional to the enzyme activity. The active concentration of a test compound at which half the enzyme is inhibited (50% signal intensity of the fluorescent light) is reported as the IC50 value.
(§2) Recombinant MMP-1 (from R&D Systems, 901-MP) is chemically activated in accordance with the manufacturer's instructions using APMA. 1 μl of the test compound to be analysed (as a solution in DMSO, suitable concentrations, for example, 1 nM to 30 μM) is pipetted into 24 μl of activated enzyme (final concentration, for example, 2 nM) in reaction buffer (50 mM Tris/HCl pH 7.5, 10 mM CaCl2, 150 mM NaCl, 0.05% Brij®-35) in a white 384-hole microtiter plate (MTP). The enzymatic reaction is started by adding the intramolecularly quenched Mca-Pro-Leu-Gly-Leu-Dpa(Dnp)-Ala-Arg-NH2 substrate (final concentration, for example, 10 μM; R&D Systems, ES-001), so as to result in a total test volume of 50 μl. The course of the MMP-1 reaction is measured by measuring the fluorescence intensity (excitation 320 nm, emission 410 nm) over a suitable period of time (for example over 120 min at a temperature of 32° C.).

Assay [2] deals with T2, mouse MMP-2 (Mus musculus, UniProt P33434).
T2 construct: purchased R&D Systems 924-MP
T2 sequence (P33434 110-662): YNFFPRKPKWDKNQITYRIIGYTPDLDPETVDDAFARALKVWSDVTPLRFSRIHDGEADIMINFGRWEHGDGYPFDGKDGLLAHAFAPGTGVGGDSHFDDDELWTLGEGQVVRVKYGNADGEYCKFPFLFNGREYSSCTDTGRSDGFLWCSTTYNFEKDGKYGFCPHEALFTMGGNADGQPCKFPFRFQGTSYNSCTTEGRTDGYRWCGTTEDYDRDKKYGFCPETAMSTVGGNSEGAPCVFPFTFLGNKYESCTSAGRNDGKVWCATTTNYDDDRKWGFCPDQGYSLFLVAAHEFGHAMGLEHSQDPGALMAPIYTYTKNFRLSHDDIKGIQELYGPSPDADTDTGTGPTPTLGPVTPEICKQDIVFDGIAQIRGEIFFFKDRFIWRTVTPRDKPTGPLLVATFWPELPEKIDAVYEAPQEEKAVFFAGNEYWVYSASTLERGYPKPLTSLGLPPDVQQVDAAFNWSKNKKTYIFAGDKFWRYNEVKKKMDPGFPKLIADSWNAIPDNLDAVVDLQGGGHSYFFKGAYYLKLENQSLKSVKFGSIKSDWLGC
In words: In vitro mouse MMP-2 inhibition test.
Source text: as §1
as §2, with “Recombinant mouse MMP-2” for “Recombinant MMP-1”, “Systems, 924-MP)” for “Systems, 901-MP)”, “example, 0.1” for “example, 2”, “50” for “50 μl.”, “the MMP-2” for “the MMP-1”

The target in assay [3] is T3, MMP-14 (Homo sapiens, UniProt P50281).
T3 construct: purchased R&D Systems 918-MP
The experiment in a line: In vitro MMP-14 inhibition test.
Source text: as §1
Recombinant MMP-14 (from R&D Systems, 918-MP) is enzymatically activated in accordance with the manufacturer's instructions using recombinant furin (from R&D Systems, 1503-SE). 1 μl of the test compound to be analysed (as a solution in DMSO, suitable concentrations e.g. 1 nM to 30 μM) is pipetted into 24 μl of activated enzyme (final concentration e.g. 0.5 nM) in reaction buffer (50 mM Tris/HCl pH 7.5, 10 mM CaCl2, 150 mM NaCl, 0.05% Brij®-35) in a white 384-hole microtiter plate (MTP). The enzymatic reaction is started by adding the intramolecularly quenched Mca-Lys-Pro-Leu-Gly-Leu-Dpa(Dnp)-Ala-Arg-NH2 substrate (final concentration, for example, 5 μM; R&D Systems, ES-010), so as to result in a total test volume of 50 The course of the MMP-14 reaction is measured by measuring the fluorescence intensity (excitation 320 nm, emission 410 nm) over a suitable period of time (for example over 120 min at a temperature of 32° C.).

Assay [4] deals with T4, MMP-13 (Homo sapiens, UniProt P45452).
T4 construct: purchased R&D Systems 511-MP
In words: In vitro MMP-13 inhibition test.
Source text: as §1
as §2, with “Recombinant MMP-13” for “Recombinant MMP-1”, “Systems, 511-MP)” for “Systems, 901-MP)”, “example, 0.1” for “example, 2”, “50” for “50 μl.”, “the MMP-13” for “the MMP-1”

For `O=C(O)[C@@H]1[C@@H](Cn2nnc3ccc(C(F)(F)F)cc3c2=O)CC[C@H]1C(=O)c1ccc(SCc2ccc(Cl)c(Cl)c2)cc1` (single isomer, unassigned) [Example 80, (+)-(1RS,2RS,5SR)-2-{4-[(3,4-Dichlorobenzyl)sulphanyl]benzoyl}-5-{[4-oxo-6-(trifluoromethyl)-1,2,3-benzotriazin-3(4H)-yl]methyl}cyclopentanecarboxylic acid], the IC50 (as a rule, the midpoint of a concentration-inhibition curve) in assay [1] was determined as 2.5 µM; in assay [2], 1.5 µM; in assay [3], 2.6 µM; in assay [4] it was 0.84 µM.
The corresponding values for `Cc1cccc(COc2ccc(C(=O)[C@H]3CC[C@@H](Cn4nnc5ccc(C)cc5c4=O)[C@@H]3C(=O)O)cc2)c1` (racemic) [Example 97, (+/−)-(1RS,2RS,5SR)-2-{4-[(3-Methylbenzyl)oxy]benzoyl}-5-[(6-methyl-4-oxo-1,2,3-benzotriazin-3(4H)-yl)methyl]cyclopentanecarboxylic acid] are above 40 µM, 1.9 µM, 0.87 µM and 1.5 µM.
For `CCCCCOc1ccc(C(=O)[C@H]2CC[C@@H](Cn3nnc4ccc(C)cc4c3=O)[C@@H]2C(=O)O)cc1` (racemic) [Example 123, (+/−)-(1RS,2SR,5RS)-2-[(6-Methyl-4-oxo-1,2,3-benzotriazin-3(4H)-yl)methyl]-5-[4-(pentyloxy)benzoyl]cyclopentanecarboxylic acid] the same measures were 24 µM, 0.37 µM, 0.49 µM and 0.23 µM.
As to `O=C(O)[C@@H]1[C@@H](Cn2nnc3ccc(C(F)(F)F)cc3c2=O)CC[C@H]1C(=O)c1ccc(OCc2cccc(Cl)c2)cc1` (single isomer, unassigned) [Example 23, (+)-(1RS,2RS,5SR)-2-{4-[(3-Chlorobenzyl)oxy]benzoyl}-5-{[4-oxo-6-(trifluoromethyl)-1,2,3-benzotriazin-3(4H)-yl]methyl}cyclopentanecarboxylic acid], the 50% inhibitory concentration (IC50) in assay [1] was found to be 24 µM; in assay [2], 2.4 µM; in assay [3], 1.2 µM; in assay [4], 1.5 µM.
Turning to `O=C(O)[C@H]1[C@H](Cn2nnc3ccccc3c2=O)CC[C@@H]1C(=O)c1ccc(OCCC2CCCCC2)cc1` (racemic) [Example 5, (+/−)-(1RS,2RS,5SR)-2-[4-(2-Cyclohexylethoxy)benzoyl]-5-[(4-oxo-1,2,3-benzotriazin-3(4H)-yl)methyl]cyclopentanecarboxylic acid], the half-inhibitory concentration (IC50) in assay [1] is above 40 µM; in assay [2], 0.27 µM; in assay [3] it was 0.62 µM; in assay [4] it was 0.35 µM.
As for `Cc1ccc2nnn(C[C@@H]3CC[C@H](C(=O)c4ccc(OCc5cccc(C(F)(F)F)c5)cc4)[C@H]3C(=O)O)c(=O)c2c1` (racemic) [Example 100, (+/−)-(1RS,2SR,5RS)-2-[(6-Methyl-4-oxo-1,2,3-benzotriazin-3(4H)-yl)methyl]-5-(4-{[3-(trifluoromethyl)benzyl]oxy}benzoyl)cyclopentanecarboxylic acid], the IC50 in assay [1] was above 40 µM; in assay [2], 0.89 µM; in assay [3], 0.72 µM; in assay [4], 0.36 µM.
The corresponding values for `Cc1cccc(COc2ccc(C(=O)[C@@H]3CC[C@H](Cn4nnc5ccc(C)cc5c4=O)[C@H]3C(=O)O)cc2)c1` (single isomer, unassigned) [Example 98, (+)-(1RS,2RS,5SR)-2-{4-[(3-Methylbenzyl)oxy]benzoyl}-5-[(6-methyl-4-oxo-1,2,3-benzotriazin-3(4H)-yl)methyl]cyclopentanecarboxylic acid] are 9.6 µM, 0.64 µM, 0.21 µM and 0.41 µM.
The corresponding values for `O=C(O)[C@@H]1[C@@H](Cn2nnc3ccc(C(F)(F)F)cc3c2=O)CC[C@H]1C(=O)c1ccc(SCc2cccc(Cl)c2)cc1` (single isomer, unassigned) [Example 77, (+)-(1RS,2RS,5SR)-2-{4-[(3-Chlorobenzyl)sulphanyl]benzoyl}-5-{[4-oxo-6-(trifluoromethyl)-1,2,3-benzotriazin-3(4H)-yl]methyl}cyclopentanecarboxylic acid] are 2.9 µM, 1.4 µM, 1.2 µM and 0.77 µM.
For `Cc1ccc2nnn(C[C@@H]3CC[C@H](C(=O)c4ccc(OCc5cccc(Cl)c5)cc4)[C@H]3C(=O)O)c(=O)c2c1` (racemic) [Example 103, (+/−)-(1RS,2RS,5SR)-2-{4-[(3-Chlorobenzyl)oxy]benzoyl}-5-[(6-methyl-4-oxo-1,2,3-benzotriazin-3(4H)-yl)methyl]cyclopentanecarboxylic acid] the same measures were 9.7 µM, 0.37 µM, 0.32 µM and 0.25 µM.
In the case of `COC(=O)Nc1cccc(COc2ccc(C(=O)[C@@H]3CC[C@H](Cn4nnc5ccc(C(F)(F)F)cc5c4=O)[C@H]3C(=O)O)cc2)c1` (stereo in doubt) [Example 31, (+)-(1RS,2RS,5SR)-2-[4-({3-[(Methoxycarbonyl)amino]benzyl}oxy)benzoyl]-5-{[4-oxo-6-(trifluoromethyl)-1,2,3-benzotriazin-3(4H)-yl]methyl}cyclopentanecarboxylic acid], the IC50 stood at 5.4 µM in assay [1], 0.99 µM in assay [2], 0.4 µM in assay [3] and 0.19 µM in assay [4].
On to `Cc1ccc2nnn(C[C@@H]3CC[C@H](C(=O)c4ccc(OCc5cccc(OC(F)(F)F)c5)cc4)[C@H]3C(=O)O)c(=O)c2c1` (racemic) [Example 109, (+/−)-(1RS,2SR,5RS)-2-[(6-Methyl-4-oxo-1,2,3-benzotriazin-3(4H)-yl)methyl]-5-(4-{[3-(trifluoromethoxy)benzyl]oxy}benzoyl)cyclopentanecarboxylic acid], for which the half-inhibitory concentration (IC50) in assay [1] was above 40 µM; in assay [2], 1.3 µM; in assay [3], 0.67 µM; in assay [4] it was 0.19 µM.
